According to patent US10835533B2, “1 -((3S,4R)-4-(3-fluorophenyl)-1-(2-methoxyethyl)pyrrolidin-3-yl)-3-(4-methyl-3-(2-methylpyrimidin-5-yl)-1-phenyl-1H-pyrazol-5-yl)urea as a TrkA kinase inhibitor” (Array BioPharma Inc., priority 2014, dated 2020):
Marks after values point to notes of the source that are not given here.

Key:
[1] = IV clearance, 1 mg/kg IV, dog; type: in vivo; conditions: for clearance: male, Beagle, plasma, 1 mg/kg IV; for in vivo/in vitro correction factor: microsomal CLh divided by IV CL
Description: (§1) In Table 1, the predicted human IV clearance values were calculated from compound concentration-versus-time data in plasma collected from pre-clinical species (mouse, rat, dog and monkey) following 1 mg/kg intravenous (IV) doses. Concentrations of compound in plasma were measured by LC-MS (liquid chromatography-mass spectrometry). AUCinf values (Area under the plasma concentration-time curve for a dosing interval from time 0 extrapolated to infinity) for individual Cp/t curves (concentration of the drug in plasma at any time t) were determined using linear-trapezoidal integration and first order extrapolation from terminal points of the Cp/t curves, and clearance (CL) was calculated using Dose/AUCinf.
An IV dose formulation for delivery of a 1 mg/kg in 1 mL/kg dose volume was prepared as follow. The vehicle for the formulation was 20% Trappsol® (hydroxypropyl Beta cyclodextrin; CDT, Inc.) (aq) in water. A final volume of the vehicle was added to each of Compound 1, Compound 2, and Compound 3 (as dry compounds) and the mixture was stirred until a homogeneous solution was obtained. The pH of the final solution was 7. The solution was filtered using a 0.2 μM filter before delivering to the animal.
Male Beagle dogs received a single intravenous dose following an overnight fast. Blood/plasma was collected (1.5 mL/timepoint) in K2EDTA blood collection tubes at the following time points post-dose: 0, 1, 5, 15, and 30 minutes, and 1, 2, 4, 8, 12, 24, and 48 hours, and mixed thoroughly. Blood samples were collected from the jugular, cephalic or saphenous veins from conscious animals. Blood samples were kept on ice until processed for plasma. Blood samples were centrifuged at 3200 RPM for 10 minutes at approximately 5° C. Plasma samples were directly transferred to 96-well plate tubes (MatrixTech, 0.75 mL). Rubber injectable caps were placed on the 96-well plate tubes. Plasma samples were stored at −20±5° C. until analyzed.
A single 12-point calibration curve was prepared by first serially diluting (3-fold) a 40-μg/mL stock solution of Compound 1, Compound 2, and Compound 3 in DMSO to provide standard solutions. Plasma (20 μL) was then added to the extraction plate, and 2.5 μL of each standard solution was added to the naïve plasma. A stock solution of an internal standard (10.0 μL of 2.5 μg/mL in acetonitrile) subsequently was added to each standard and sample solution. Proteinaceous material was precipitated from 20 μL of plasma with the addition of 317.5 μL of acetonitrile for a total volume of 350 μL. Samples were vortex-mixed for 5 minutes and spun in an Allegra X-12R centrifuge (Beckman Coulter, Fullerton, Calif.) for 15 minutes at approximately 1,500×g at 4° C. A 100-μL aliquot of each supernatant was transferred via a 550 μL Personal Pipettor (Apricot Designs, Monrovia, Calif.) to 96-well plates and diluted 1:1 with HPLC grade water. The resulting plates were sealed with plate mats and the amount of Compound 1 n plasma was analyzed by LC-MS/MS.
The LC-MS/MS system was comprised of an HTC-PAL autosampler (Leap Technologies, Inc., Carrboro, N.C.), an HP1100 HPLC (Agilent Technologies Inc., Santa Clara, Calif.), and an API4000 triple quadrupole mass spectrometer (Applied Biosystems, Foster City, Calif.). Chromatographic retention of the analyte and internal standard was achieved using a Phenomenex® Synergi 4μ Hydro-RP 80A column (2.1×30 mm, 4 μm particle size; Phenomenex, Torrance, Calif.) in conjunction with gradient conditions using mobile phases A (10 mM ammonium acetate in aqueous 0.1% formic acid and 1% isopropyl alcohol) and B (10 mM ammonium acetate in 89.9% acetonitrile, 10% methanol, 0.1% formic acid). The total run time, including re-equilibration time, for a single injection was 3.5 minutes and the flow rate was 0.8 mL/minute. Solvent B was increased from 5 to 95% in 1.0 minute, held at 95% for 1.0 minute, and then decreased to 5% in 0.1 minute. […]

[2] = Predicted human IV clearance (microsomal CLh/correction factor); conditions: for in vivo/in vitro correction factor: pre-clinical mean correction factor for all species tested; for IV clearance (predicted): predicted from human microsomal CLh and mean pre-clinical correction factor
Description: as §1
The in vivo/in vitro correction factor was then determined by dividing the […]. The arithmetic mean of the pre-clinical correction factors for each compound was used to predict the human IV clearance from the measured human microsomal CLh (CLh/correction factor).

Row | clearance [1] [mL/min/kg] | in vivo/in vitro correction factor [1] | in vivo/in vitro correction factor [2] | IV clearance (predicted) [2] | Compound
1 | 7.6 | 3.16 | 2.09 *** | 5 (predicted)** mL/min/kg | COCCN1C[C@@H](NC(=O)Nc2c(C)c(-c3cnc(C)nc3)nn2-c2ccccc2)[C@H](c2cccc(F)c2)C1 [Compound 1, 1-((3S,4R)-4-(3-fluorophenyl)-1-(2-methoxyethyl)pyrrolidin-3-yl)-3-(4-methyl-3-(2-methylpyrimidin-5-yl)-1-phenyl-1H-pyrazol-5-yl)urea]
2 | 25 | 1.04 | 1.32 *** | 12 (predicted)** mL/min/kg | COCCN1C[C@@H](NC(=O)Nc2c(C)c(-c3cnc(C)nc3)nn2-c2ccccc2)[C@H](c2ccc(F)c(F)c2)C1 [Compound 2, 1-((3S,4R)-4-(3,4-difluorophenyl)-1-(2-methoxyethyl)pyrrolidin-3-yl)-3-(4-methyl-3-(2-methylpyrimidin-5-yl)-1-phenyl-1H-pyrazol-5-yl)urea]
3 | 18 | 1.28 | 0.96 *** | 10 (predicted)** mL/min/kg | COCCN1C[C@@H](NC(=O)Nc2c(C)c(-c3cnn(C)c3)nn2-c2ccccc2)[C@H](c2ccc(F)cc2)C1 [Compound 3, 1-(1′,4-dimethyl-1-phenyl-1H,1′H-[3,4′-bipyrazol]-5-yl)-3-((3S,4R)-4-(4-fluorophenyl)-1-(2-methoxyethyl)pyrrolidin-3-yl)urea]
